Measured values reported in patent US10894792B2, “Pesticidally active heterocyclic derivatives with sulfur containing substituents” (SYNGENTA PARTICIPATIONS AG, priority 2017, dated 2021).

Legend:
[1] = system: Euschistus heros; assay: Activity against Euschistus heros (neotropical brown stink bug); type: in vivo; conditions: 120 h, application rate of 200 ppm, sprayed soybean leaf, N-2 nymphs, 5 days after infestation, read-out: effect in at least one of the two categories (mortality or growth inhibition)
Method: Soybean leaf on agar in 24-well microtiter plates were sprayed with aqueous test solutions prepared from 10′000 ppm DMSO stock solutions. After drying the leaf were infested with N-2 nymphs. The samples were assessed for mortality and growth inhibition in comparison to untreated samples 5 days after infestation.

[2] = system: Myzus persicae; assay: Activity against Myzus persicae (green peach aphid), roots of pea seedlings in test solution; type: in vivo; conditions: 144 h, test rate of 24 ppm, roots of infested pea seedlings in test solution, 6 days
Method: Roots of pea seedlings infested with an aphid population of mixed ages were placed directly in the aqueous test solutions prepared from 10′000 DMSO stock solutions. The samples were assessed for mortality 6 days after placing seedlings in test solutions.

[3] = system: Thrips tabaci; assay: Activity against Thrips tabaci (onion thrips); type: in vivo; conditions: foliar, 144 h, application rate of 200 ppm, sprayed sunflower leaf discs, thrips population of mixed ages, 6 days after infestation
Method: (§1) Sunflower leaf discs were placed on agar in 24-well microtiter plates and sprayed with aqueous test solutions prepared from 10′000 ppm DMSO stock solutions. After drying the leaf discs were infested with a thrips population of mixed ages. The samples were assessed for mortality 6 days after infestation.

[4] = system: Diabrotica Balteata; assay: Activity against Diabrotica balteata (corn root worm); type: in vivo; conditions: 96 h, application rate of 200 ppm, sprayed maize sprouts, L2 larvae, 4 days after infestation, read-out: effect in at least one of the two categories (mortality or growth inhibition)
Method: Maize sprouts placed onto an agar layer in 24-well microtiter plates were treated with aqueous test solutions prepared from 10′000 ppm DMSO stock solutions by spraying. After drying, the plates were infested with L2 larvae (6 to 10 per well). The samples were assessed for mortality and growth inhibition in comparison to untreated samples 4 days after infestation.

[5] = system: Bemisia tabaci; assay: Activity against Bemisia tabaci (cotton white fly); type: in vivo; conditions: foliar, 144 h, application rate of 200 ppm, sprayed cotton leaf discs, adult white flies, 6 days after incubation
Method: Cotton leaf discs were placed on agar in 24-well microtiter plates and sprayed with aqueous test solutions prepared from 10′000 ppm DMSO stock solutions. After drying the leaf discs were infested with adult white flies. The samples were checked for mortality 6 days after incubation.

[6] = system: Frankliniella occidentalis; assay: Activity against Frankliniella occidentalis (western flower thrips); type: in vivo; conditions: foliar, 168 h, application rate of 200 ppm, sprayed sunflower leaf discs, population of mixed ages, 7 days after infestation
Method: as §1, with “[…]” for “10′000 ppm”, “Frankliniella” for “thrips”, “7” for “6”

[7] = system: Myzus persicae; assay: Activity against Myzus persicae (green peach aphid), sprayed sunflower leaf discs; type: in vivo; conditions: foliar, 144 h, application rate of 200 ppm, aphid population of mixed ages, 6 days after infestation
Method: Sunflower leaf discs were placed on agar in a 24-well microtiter plate and sprayed with aqueous test solutions prepared from 10′000 ppm DMSO stock solutions. After drying, the leaf discs were infested with an aphid population of mixed ages. The samples were assessed for mortality 6 days after infestation.

[8] = system: Plutella xylostella; assay: Activity against Plutella xylostella (diamond back moth), artificial diet; type: in vivo; conditions: 120 h, application rate of 200 ppm, L2 larvae on artificial diet, 5 days after infestation, read-out: effect in at least one of the two categories (mortality or growth inhibition)
Method: 24-well microtiter plates with artificial diet were treated with aqueous test solutions prepared from 10′000 ppm DMSO stock solutions by pipetting. After drying, the plates were infested with L2 larvae (10 to 15 per well). The samples were assessed for mortality and growth inhibition in comparison to untreated samples 5 days after infestation.

[9] = system: Spodoptera littoralis; assay: Activity against Spodoptera littoralis (Egyptian cotton leaf worm); type: in vivo; conditions: foliar, 72 h, application rate of 200 ppm, sprayed cotton leaf discs, L1 larvae, 3 days after infestation, read-out: control (mortality, anti-feeding effect, or growth inhibition)
Method: Cotton leaf discs were placed onto agar in 24-well microtiter plates and sprayed with aqueous test solutions prepared from 10′000 ppm DMSO stock solutions. After drying the leaf discs were infested with five L1 larvae. The samples were assessed for mortality, anti-feeding effect, and growth inhibition in comparison to untreated samples 3 days after infestation. Control of Spodoptera littoralis by a test sample is given when at least one of the categories mortality, anti-feedant effect, and growth inhibition is higher than the untreated sample.

melting point [°C] | SMILES | percent effect (mortality or growth inhibition) at 200 ppm [1] [%] | mortality at 24 ppm [2] [%] | mortality at 200 ppm [3] [%] | percent effect (mortality or growth inhibition) at 200 ppm [4] [%] | mortality at 200 ppm [5] [%] | mortality at 200 ppm [6] [%] | mortality at 200 ppm [7] [%] | percent effect (mortality or growth inhibition) at 200 ppm [8] [%] | percent control (mortality, anti-feedant effect or growth inhibition) at 200 ppm [9] [%]
 | CCS(=O)(=O)c1cc(C(=O)N=S(C)(C)=O)cnc1-c1nc2cc(C(F)(F)F)ncc2n1C [Compound P1, N-[dimethyl(oxo)-λ^6-sulfanylidene]-5-ethylsulfonyl-6-[3-methyl-6-(trifluoromethyl)imidazo[4,5-c]pyridin-2-yl]pyridine-3-carboxamide] | ≥ 80 | ≥ 80 | ≥ 80 | ≥ 80 | ≥ 80 | ≥ 80 | ≥ 80 | ≥ 80 | 
 | CCS(=O)(=O)c1cc(C(=O)N=S(C)(C)=O)cnc1-c1cn2cnc(C(F)(F)F)cc2n1 [Compound P4, N-[dimethyl(oxo)-λ^6-sulfanylidene]-5-ethylsulfonyl-6-[7-(trifluoromethyl)imidazo[1,2-c]pyrimidin-2-yl]pyridine-3-carboxamide] | ≥ 80 | ≥ 80 |  | ≥ 80 | ≥ 80 | ≥ 80 | ≥ 80 | ≥ 80 | ≥ 80
 | CCS(=O)(=O)c1cc(C(=O)N=S(C)(=O)CC)cnc1-c1nc2cc(C(F)(F)F)ncc2n1C (stereo not shown) [Compound P8, N-(ethyl-methyl-oxo-λ^6-sulfanylidene)-5-ethylsulfonyl-6-[3-methyl-6-(trifluoromethyl)imidazo[4,5-c]pyridin-2-yl]pyridine-3-carboxamide] | ≥ 80 | ≥ 80 |  | ≥ 80 | ≥ 80 | ≥ 80 | ≥ 80 | ≥ 80 | ≥ 80
 | CCS(=O)(=O)c1cc(C(=O)N=S2(=O)CCC2)cnc1-c1cn2cnc(C(F)(F)F)cc2n1 [Compound P13, 5-ethylsulfonyl-N-(1-oxothietan-1-ylidene)-6-[7-(trifluoromethyl)imidazo[1,2-c]pyrimidin-2-yl]pyridine-3-carboxamide] | ≥ 80 | ≥ 80 |  | ≥ 80 |  |  | ≥ 80 | ≥ 80 | ≥ 80
 | CCS(=O)(=O)c1cc(C(=O)N=S(C)(C)=O)cnc1-c1nc2cc(C(F)(F)F)cnc2n1C [Compound P14, N-[dimethyl(oxo)-λ^6-sulfanylidene]-5-ethylsulfonyl-6-[3-methyl-6-(trifluoromethyl)imidazo[4,5-b]pyridin-2-yl]pyridine-3-carboxamide] | ≥ 80 | ≥ 80 |  | ≥ 80 | ≥ 80 | ≥ 80 | ≥ 80 | ≥ 80 | ≥ 80
 | CCS(=O)(=O)c1cc(C(=O)N=S(C)(=O)CC)cnc1-c1nc2cc(C(F)(F)F)cnc2n1C (stereo not shown) [Compound P15, N-(ethyl-methyl-oxo-λ^6-sulfanylidene)-5-ethylsulfonyl-6-[3-methyl-6-(trifluoromethyl)imidazo[4,5-b]pyridin-2-yl]pyridine-3-carboxamide] | ≥ 80 | ≥ 80 |  | ≥ 80 | ≥ 80 | ≥ 80 | ≥ 80 | ≥ 80 | ≥ 80
 | CCS(=O)(=O)c1cc(C(=O)N=S2(=O)CCC2)cnc1-c1nc2cc(C(F)(F)F)cnc2n1C [Compound P16, 5-ethylsulfonyl-6-[3-methyl-6-(trifluoromethyl)imidazo[4,5-b]pyridin-2-yl]-N-(1-oxothietan-1-ylidene)pyridine-3-carboxamide] | ≥ 80 | ≥ 80 |  | ≥ 80 | ≥ 80 |  | ≥ 80 | ≥ 80 | ≥ 80
216 to 219 | CCS(=O)(=O)c1cc(C(=O)N=S(C)(=O)CC)cnc1-n1cc2cnc(C(F)(F)F)cc2n1 (stereo not shown) [Compound P25, N-(ethyl-methyl-oxo-λ^6-sulfanylidene)-5-ethylsulfonyl-6-[6-(trifluoromethyl)pyrazolo[4,3-c]pyridin-2-yl]pyridine-3-carboxamide] |  |  |  |  |  |  |  |  | 
185 to 189 | CCS(=O)(=O)c1cc(C(=O)N=S(=O)(CC)CC)cnc1-n1cc2cnc(C(F)(F)F)cc2n1 [Compound P26, N-[diethyl(oxo)-λ^6-sulfanylidene]-5-ethylsulfonyl-6-[6-(trifluoromethyl)pyrazolo[4,3-c]pyridin-2-yl]pyridine-3-carboxamide] |  |  |  |  |  |  |  |  | 
